Measurements from US9834558B2, “Substituted bridged urea analogs as sirtuin modulators” (GLAXOSMITHKLINE LLC, priority 2013, dated 2017).

Biological target: T1, SIRT1 (Homo sapiens, UniProt Q96EB6)
T1 sequence (Q96EB6 1-747): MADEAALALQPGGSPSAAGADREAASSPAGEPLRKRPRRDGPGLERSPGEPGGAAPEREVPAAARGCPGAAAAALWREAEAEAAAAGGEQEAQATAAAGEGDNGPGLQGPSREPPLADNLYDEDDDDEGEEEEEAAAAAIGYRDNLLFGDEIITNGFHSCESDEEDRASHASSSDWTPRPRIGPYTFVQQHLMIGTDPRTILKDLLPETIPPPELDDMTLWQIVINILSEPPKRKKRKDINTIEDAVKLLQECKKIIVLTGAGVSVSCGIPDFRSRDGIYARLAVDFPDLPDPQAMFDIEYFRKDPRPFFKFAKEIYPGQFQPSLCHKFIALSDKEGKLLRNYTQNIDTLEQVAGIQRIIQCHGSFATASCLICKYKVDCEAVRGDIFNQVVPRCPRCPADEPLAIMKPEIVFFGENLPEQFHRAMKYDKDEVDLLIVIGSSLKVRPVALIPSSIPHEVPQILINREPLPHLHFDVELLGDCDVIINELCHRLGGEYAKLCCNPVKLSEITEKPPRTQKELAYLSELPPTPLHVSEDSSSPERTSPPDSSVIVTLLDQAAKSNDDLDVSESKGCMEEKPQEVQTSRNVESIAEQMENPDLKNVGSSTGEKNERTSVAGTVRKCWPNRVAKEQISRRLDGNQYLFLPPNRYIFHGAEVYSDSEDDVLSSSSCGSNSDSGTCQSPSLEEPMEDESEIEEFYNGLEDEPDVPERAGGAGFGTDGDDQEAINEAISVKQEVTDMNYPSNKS
Experiment: Trp mass spectrometry assay of SIRT1 activation
Assay type: biochemical
Details: for TRP Activity (EC1.5) / Emax: Trp peptide assay; for TRP Activity (EC1.5): EC1.5 = concentration that results in 150% activation of SIRT1; for Emax: maximum activity relative to control (100%), read-out: TRP MAX RESP (percent maximum fold activation)
Text: Mass spectrometry based assays were used to identify modulators of SIRT1 activity. […] The peptide was labeled with the fluorophore STMR (excitation 540 nm/emission 580 nm) at the C-terminus. The sequence of the peptide substrate was based on p53 with several modifications. In addition, the methionine residue naturally present in the sequence was replaced with the norleucine because the methionine may be susceptible to oxidation during synthesis and purification. The Trp based assay utilized a peptide having an amino acid residues as follows: Ac-R-H-K-K(Ac)-W-NH2 (SEQ ID NO: 2).
The Trp mass spectrometry assay was conducted as follows. 0.5 μM peptide substrate and 120 μM βNAD^+ were incubated with 10 nM SIRT1 for 25 minutes at 25° C. in a reaction buffer (50 mM HEPES pH 7.5, […], 1 mM DTT, 0.05% BSA). The SIRT1 protein was obtained by cloning the SirT1 gene into a T7-promoter containing vector, which was then expressed in BL21(DE3) bacterial cells and purified as described in further detail below. Test compound was added at varying concentrations to this reaction mixture and the resulting reactions were monitored. After the 25 minute incubation with SIRT1, 10 μL of 10% formic acid was added to stop the reaction. The resulting reactions were sealed and frozen for later mass spec analysis. The relative SIRT1 activity was then determined by measuring the amount of O-acetyl-ADP-ribose (OAADPR) formed (or, alternatively, the amount of deacetylated Trp peptide generated) by the NAD-dependent sirtuin deacetylation reaction in the presence of varying concentrations of the test compound versus control reactions lacking the test compound. The degree to which the test agent activated deacetylation by SIRT1 was expressed as EC1.5 (i.e., the concentration of compound required to increase SIRT1 activity by 50% over the control lacking test compound), and Percent Maximum Activation (i.e., the maximum activity relative to control (100%) obtained for the test compound).
This time point was the same as that used for test compounds and, within the linear range, the endpoint represents a change in velocity.
For the above assay, SIRT1 protein was expressed and purified as follows. The SirT1 gene was cloned into a T7-promoter containing vector and transformed into BL21(DE3). The protein was expressed by induction with 1 mM IPTG as an N-terminal His-tag fusion protein at 18° C. overnight and harvested at 30,000×g. Cells were lysed with lysozyme in lysis buffer (50 mM Tris-HCl, 2 mM Tris[2-carboxyethyl]phosphine (TCEP), 10 μM ZnCl2, 200 mM NaCl) and further treated with sonication for 10 min for complete lysis. The protein was purified over a Ni-NTA column (Amersham) and fractions containing pure protein were pooled, concentrated and run over a sizing column (Sephadex S200 26/60 global). The peak containing soluble protein was collected and run on an Ion-exchange column (MonoQ). Gradient elution (200 mM-500 mM NaCl) yielded pure protein. This protein was concentrated and dialyzed against dialysis buffer (20 mM Tris-HCl, 2 mM TCEP) overnight. The protein was aliquoted and frozen at −80° C. until further use.
“NT” means not tested; “ND” means not determinable.

[1] = Trp mass spectrometry assay, EC1.5 = concentration of test compound that results in 150% activation of SIRT1
[2] = concentration giving 150% activation of SIRT1, Trp peptide substrate
[3] = Trp mass spectrometry assay, concentration of test compound giving 150% activation of SIRT1

Row | TRP Activity (EC1.5) | Emax | Structure (SMILES) | also measured
1 | – | – | O=C(CCCCCNC(=O)c1ccc(-c2c3ccc(=O)cc-3oc3cc(O)ccc23)c(C(=O)O)c1)NCc1ccc(NC(=O)N2c3nc(-c4cccc(C(F)(F)F)c4)ccc3N3CCC[C@H]2C3)cc1 [546 (3), 2-(6-hydroxy-3-oxo-3H-xanthen-9-yl)-5-((6-oxo-6-((4-((9S)-2-(3-(trifluoromethyl)phenyl)-7,8,9,10-tetra-hydro-6H-5,9-methanopyrido[2,3-b][1,4]diazocine-10-carboxamido)benzyl)amino)hexyl)carbamoyl)benzoic acid] | Tryp AVG EC1.5 (μM) [1]: B (B (EC1.5 1-25 μM))
2 | – | – | CC1(CCC(=O)NCc2ccc(NC(=O)N3c4nc(-c5cccc(C(F)(F)F)c5)ccc4N4CC[C@H]3C4)cc2)N=N1 [Example 548] | Tryp AVG EC1.5 (μM) [1]: B (B (EC1.5 1-25 μM))
3 | – | – | COc1cc(NC(=O)N2c3nc(-c4cccc(Cl)c4)ccc3N3C[C@@H](O)[C@H]2C3)ncn1 [Example 679] | Tryp AVG EC1.5 (μM) [2]: B (B (EC1.5 1-25 μM))
4 | – | – | O=C(Nc1cnccn1)N1c2nc(-c3cccc(C(F)(F)F)n3)ccc2N2CC[C@H]1C2 [Example 338] | Tryp AVG EC1.5 (μM) [3]: B (B (EC1.5 1-25 μM))
5 | B (B (EC1.5 1-25 μM)) | > 150% | Cc1ncc(-c2ccc3c(n2)N(C(=O)Nc2cnccn2)[C@H]2CCN3C2)cn1 [(9S)-5-(2-methylpyrimidin-5-yl)-N-(pyrazin-2-yl)-1,6,8-triazatricyclo[7.2.1.0 {2,7}]dodeca-2(7),3,5-triene-8-carboxamide] | –
6 | – | – | O=C(Nc1cccc(Br)n1)N1c2nc(-c3cccc(C(F)(F)F)c3)ccc2N2CC[C@H]1C2 [Example 652] | Tryp AVG EC1.5 (μM) [2]: A (A (EC1.5<1 μM))
7 | B (B (EC1.5 1-25 μM)) | > 150% | O=C(Nc1ccccn1)N1c2nc(N3CCC[C@H]3C(F)(F)F)ccc2N2CCC[C@H]1C2 [(9S)-N-(pyridin-2-yl)-5-[(2S)-2-(trifluoromethyl)pyrrolidin-1-yl]-1,6,8-triazatricyclo[7.3.1.0 {2,7}]trideca-2(7),3,5-triene-8-carboxamide] | –
8 | – | – | O=C(Nc1cccnn1)N1c2nc(-c3cccc(N4CCOCC4)c3)ccc2N2CCC[C@H]1C2 [Example 539] | Tryp AVG EC1.5 (μM) [1]: B (B (EC1.5 1-25 μM))
9 | – | – | N#Cc1cccc(-c2ccc3c(n2)N(C(=O)Nc2cnccn2)[C@H]2CCCN3C2)c1 [Example 351] | Tryp AVG EC1.5 (μM) [3]: A (A (EC1.5<1 μM))
10 | – | – | CC(C)(C)OC(=O)NCC#Cc1ccc(NC(=O)N2c3nc(-c4cccc(C(F)(F)F)c4)ccc3N3CC[C@H]2C3)cc1-c1cnco1 [Example 751] | Tryp AVG EC1.5 (μM) [2]: A (A (EC1.5<1 μM))
11 | – | – | O=C(Nc1cccnc1)N1c2nc(-c3cc[nH]n3)ccc2N2CC[C@H]1C2 [Example 493] | Tryp AVG EC1.5 (μM) [1]: B (B (EC1.5 1-25 μM))
12 | – | – | O=C(Nc1cncc(F)c1)N1c2nc(-c3cncc(Cl)c3)ccc2N2CCC1CC2 [Example 545] | Tryp AVG EC1.5 (μM) [1]: B (B (EC1.5 1-25 μM))
13 | – | – | COc1ccc(-c2ccc3c(n2)N(C(=O)Nc2ccccn2)[C@H]2CCN3C2)cn1 [Example 342] | Tryp AVG EC1.5 (μM) [3]: B (B (EC1.5 1-25 μM))
14 | – | – | CS(=O)(=O)c1cncc(-c2ccc3c(n2)N(C(=O)Nc2cncc(F)c2)[C@H]2CCCN3C2)c1 [Example 377] | Tryp AVG EC1.5 (μM) [3]: A (A (EC1.5<1 μM))
15 | – | – | O=C(NCCc1ccccn1)N1c2nc(-c3cccc(C(F)(F)F)c3)ccc2N2CC[C@H]1C2 [Example 614] | Tryp AVG EC1.5 (μM) [1]: B (B (EC1.5 1-25 μM))
16 | – | – | CS(=O)(=O)c1cncc(-c2ccc3c(n2)N(C(=O)Nc2ccncn2)[C@H]2CCCN3C2)c1 [Example 379] | Tryp AVG EC1.5 (μM) [3]: A (A (EC1.5<1 μM))
17 | – | – | O=C(Nc1ccccn1)N1c2nc(-c3cccc(Cl)c3)ccc2N2CCC1CC2 [Example 533] | Tryp AVG EC1.5 (μM) [1]: B (B (EC1.5 1-25 μM))
18 | A (A (EC1.5<1 μM)) | > 150% | Cc1cc(-c2ccc3c(n2)N(C(=O)Nc2nc(C)c(C)s2)[C@H]2CCCN3C2)ccn1 [(9S)-N-(dimethyl-1,3-thiazol-2-yl)-5-(2-methylpyridin-4-yl)-1,6,8-triazatricyclo[7.3.1.0 {2,7}]trideca-2(7),3,5-triene-8-carboxamide] | –
19 | B (B (EC1.5 1-25 μM)) | > 150% | Cn1ccc(-c2ccc3c(n2)N(C(=O)Nc2cccnc2)[C@H]2CCN3C2)cc1=O [(9S)-5-(1-methyl-2-oxo-1,2-dihydropyridin-4-yl)-N-(pyridin-3-yl)-1,6,8-triazatricyclo[7.2.1.0 {2,7}]dodeca-2(7),3,5-triene-8-carboxamide] | –
20 | A (A (EC1.5<1 μM)) | > 150% | O=C(Nc1cncc(F)c1)N1c2nc(-c3ccnc(C(F)(F)F)c3)ccc2N2CCC[C@H]1C2 [(9S)-N-(5-fluoropyridin-3-yl)-5-[2-(trifluoromethyl)pyridin-4-yl]-1,6,8-triazatricyclo[7.3.1.0 {2,7}]trideca-2(7),3,5-triene-8-carboxamide] | –
21 | – | – | O=C(Nc1ccccn1)N1c2nc(-c3cncc(C(F)(F)F)c3)ccc2N2CCC[C@H]1C2 [Example 369] | Tryp AVG EC1.5 (μM) [3]: A (A (EC1.5<1 μM))
22 | B (B (EC1.5 1-25 μM)) | > 150% | Cc1cc(-c2ccc3c(n2)N(C(=O)Nc2cnccn2)[C@H]2CCN3C2)c(F)cn1 [(9S)-5-(5-fluoro-2-methylpyridin-4-yl)-N-(pyrazin-2-yl)-1,6,8-triazatricyclo[7.2.1.0 {2,7}]dodeca-2(7),3,5-triene-8-carboxamide] | –
23 | B (B (EC1.5 1-25 μM)) | > 150% | Cn1cc(-c2ccc3c(n2)N(C(=O)Nc2cnccn2)[C@H]2CCN3C2)cn1 [(9S)-5-(1-methyl-1H-pyrazol-4-yl)-N-(pyrazin-2-yl)-1,6,8-triazatricyclo[7.2.1.0 {2,7}]dodeca-2(7),3,5-triene-8-carboxamide] | –
24 | – | – | COc1cc(NC(=O)N2c3nc(-c4cccc(Cl)c4)ccc3N3CCC[C@H]2C3)ncn1 [Example 408] | Tryp AVG EC1.5 (μM) [3]: A (A (EC1.5<1 μM))
25 | B (B (EC1.5 1-25 μM)) | > 150% | Cc1cc(-c2ccc3c(n2)N(C(=O)Nc2cn(C)nn2)[C@H]2CCN3C2)ccn1 [(9S)-N-(1-methyl-1H-1,2,3-triazol-4-yl)-5-(2-methylpyridin-4-yl)-1,6,8-triazatricyclo[7.2.1.0^{2,7}]dodeca-2(7),3,5-triene-8-carboxamide] | –
26 | B (B (EC1.5 1-25 μM)) | > 150% | O=C(Nc1cnccn1)N1c2nc(-c3ccc(CO)nc3)ccc2N2CC[C@H]1C2 [(9S)-5-[6-(hydroxymethyl)pyridin-3-yl]-N-(pyrazin-2-yl)-1,6,8-triazatricyclo[7.2.1.0 {2,7}]dodeca-2(7),3,5-triene-8-carboxamide] | –
27 | A (A (EC1.5<1 μM)) | > 150% | O=C(Nc1cncnc1)N1c2nc(-c3ccnc(C(F)(F)F)c3)ccc2N2CCC[C@H]1C2 [(9S)-N-(pyrimidin-5-yl)-5-[2-(trifluoromethyl)pyridin-4-yl]-1,6,8-triazatricyclo[7.3.1.0 {2,7}]trideca-2(7),3,5-triene-8-carboxamide] | –
